The values that follow come from US10350164B2, “Process for preparing a dry powder formulation comprising an anticholinergic, a corticosteroid and a beta-adrenergic” (CHIESI FARMACEUTICI S.p.A., priority 2017, dated 2019).

Common to all, as to format: physicochemical
A short description of data set [1]: Uniformity of distribution of the active ingredients in the blend by HPLC. The procedure:
It is usually determined according to known methods, for instance by taking samples from different parts of the powder and testing the component by HPLC or other equivalent analytical methods.
The uniformity of distribution of the active ingredients was evaluated by withdrawing 12 samples from different parts of the blend and evaluated by HPLC.

Data set [2] is described as follows: Specific Surface Area (SSA) by BET nitrogen adsorption. The procedure: (§1) Co-micronized microparticles and reference micronized glycopyrronium bromide were exposed to the following conditions:
(§2) Thin layer (˜0.5 cm) in open tray for 3 days at 30° C./65% relative humidity (RH);
(§3) Thin layer (˜0.5 cm) in open tray for 4 hours at 25° C./90% RH
(2) Specific Surface Area (SSA) by Brunauer-Emmett-Teller (BET) nitrogen adsorption method according to a known procedure, and […]

Data set [3] is described as follows: Recrystallization water by Dynamic Vapour Sorption (DVS). As to the method:
as §1, §2, §3
(3) recrystallization of water using a Dynamic Vapour Sorption (DVS) instrument (Mettler Toledo GmbH, Switzerland).

The nature of data set [4]: Particle size distribution (PSD) by Malvern analysis, initially and after open-tray exposure. The procedure:
The size of the particles active is determined by measuring the characteristic equivalent sphere diameter, known as volume diameter, by laser diffraction. […] However, other equivalent apparatus may be used.
as §2, §3
(i) particle size distribution (PSD) in terms of d(v0.1), d(v0.5) and d(v0.9) by Malvern analysis, […]

A short description of data set [5]: Aerosol performance by Next Generation Impactor (NGI) from multidose dry powder inhaler. The settings on record: for Mid Fine Particle Mass: between 2.0 and 5.0 micron; for Fine Particle Mass: particle size equal to or lower than 5.0 micron. As to the method: It is calculated by the percentage ratio of the fine particle mass (formerly fine particle dose) to the delivered dose.
The delivered dose is calculated from the cumulative deposition in the apparatus, while the fine particle mass is calculated from the deposition of particles having a diameter <5.0 microns.
After aerosolization of 3 doses from the inhaler device, the NGI apparatus was disassembled and the amounts of drug deposited in the stages were recovered by washing with a solvent mixture and then quantified by High-Performance Liquid Chromatography (HPLC).

[6] abbreviates: Open thin layer 3 days at 30° C./65% RH.
Setting [7] is: Open thin layer 4 hours at 25° C./90% RH.
[8] abbreviates: Example 3 formulation (6/100/12.5 μg).
Setting [9] is: Example 4 formulation (6/100/25 μg).

On to `CCC(=O)OCC(=O)[C@@]1(OC(=O)CC)[C@@H](C)C[C@H]2[C@@H]3CCC4=CC(=O)C=C[C@]4(C)[C@@]3(Cl)[C@@H](O)C[C@@]21C` [BDP, beclometasone dipropionate], for which the Uniformity of distribution in data set [1] (Example 3 formulation (FF 6 μg/BDP 100 μg/GB 12.5 μg per 10 mg carrier), 12 samples, mean value±RSD) is listed as 101.8 (±1.1); in data set [1] (Example 4 formulation (FF 6 μg/BDP 100 μg/GB 25 μg per 10 mg carrier)) it was 100.2 (±1.2).
Regarding `C[N+]1(C)CCC(OC(=O)C(O)(c2ccccc2)C2CCCC2)C1` (racemic) [GB, glycopyrronium bromide], in data set [2] (Initial), the SSA was found to be 7.31 m^2/g. In addition, in data set [2] (setting [6]), the SSA stood at 1.85 m^2/g. Moreover, the Re-crystallization water in data set [3] (Initial) stood at 0.12 % w/w. Besides, the Re-crystallization water in data set [3] (setting [6]) was 0.02% w/w. In data set [4] (Initial), the “PSD D(v0.9)” value came out at 3.95 μm, the “PSD d(v0.1)” value was determined as 0.60 μm and the “PSD d(v0.5)” value worked out at 1.54 μm. In data set [4] (setting [7]), the “PSD D(v0.9)” value is given as 1657 μm, the “PSD d(v0.1)” value stood at 2.74 μm and the “PSD d(v0.5)” value is given as 156 μm. In data set [4] (setting [6]), the “PSD D(v0.9)” value is listed as 7.59 μm, the “PSD d(v0.1)” value is recorded as 1.00 μm and the “PSD d(v0.5)” value was 3.91 μm. In addition, in data set [5] (setting [8]), the “Extrafine Particle Fraction <1 μm” value worked out at 15.4%, the “Extrafine Particle Fraction <2 μm” value is on record as 37.6%, the “Extrafine Particle Mass <1 μm” value was 1.8 µg and the “Extrafine Particle Mass <2 μm” value worked out at 4.39 µg. In data set [5] (setting [8]), the “Fine Particle Fraction” value was 67.2%, the MMAD worked out at 1.92 μm, the “Mid Fine particle Fraction” value amounted to 29.6% and the “Mid Fine Particle Mass” value is 3.46 µg. For the same compound, the “Fine Particle Mass” value in data set [5] (setting [8]) turned out to be 7.85 µg. For the same compound, the “Delivered Dose” value in data set [5] (Example 3 formulation (6/100/12.5 μg), mean±S.D) was 11.66 (±0.4) μg. Further, in data set [5] (setting [9]), the “Delivered Dose” value came to 21.30 µg, the “Extrafine Particle Fraction <1 μm” value is reported as 8.2%, the “Extrafine Particle Fraction <2 μm” value came to 25.8% and the “Extrafine Particle Mass <1 μm” value came to 1.75 µg. Besides, in data set [5] (setting [9]), the “Extrafine Particle Mass <2 μm” value was found to be 5.49 µg, the “Fine Particle Fraction” value is 50.7%, the MMAD worked out at 2.15 μm and the “Mid Fine particle Fraction” value is 27.9%. Also, in data set [5] (setting [9]), the “Mid Fine Particle Mass” value turned out to be 5.94 µg and the “Fine Particle Mass” value turned out to be 10.8 µg.
